{"source": "patent US20060111556A1", "about": "“Preventives/remedies for neurodegenerative diseases” (priority 2002, published 2006)", "key": {"[1]": {"tested_on": "neuronal cell death inducible putative kinase (NIPK) gene", "experiment": "NIPK gene expression analysis by oligonucleotide microarray after endoplasmic reticulum stress", "type": "cell-based", "conditions": "rat primary nerve cells, medial expression level taken as 1", "protocol": "Rat primary nerve cells prepared from CD rat (Charles River Japan, Inc.) of TP-17 were suspended in B27-supplemented Neurobasal medium (NB medium: GIBCO) charged in a type I collagen-coated 24-well plate and then plated at 250,000 cells/well, followed by culturing for 3 days.\n(i) Tunicamycin (Tnc) was added to the culture cells above in a final concentration of 100 nM, (ii) thapsigargin (Thap) was added to the culture cells above in a final concentration of 2 nM, or (iii) the culture cells described above were cultured in glucose-free B27-suplemented DMEM medium with 2 medium changes and then 2-deoxyglucose (2DG) was added in 3 mM. The total RNA was extracted from the cells 4, 8 and 24 hours, respectively, in accordance with the operating manual using RNeasy Mini kit (Qiagen). Cells added to the respective media (drug-free cells) in place of the drugs above (Tnc, Thap and 2DG) were used for control. Using the oligonucleotide microarray (Rat Genome U34A; Affymetrix Corp.), gene expression analysis was conducted on these materials.\nThe experimental method was carried out in accordance with the expression analysis technical manual of Affymetrix Corp. Gene expression profiles were compared between the cells stimulated with each drug and the cells with no drug. […] (TABLE 1)."}, "NIPK gene": {"tested_on": "NIPK gene", "experiment": "NIPK gene expression analysis by oligonucleotide microarray after β amyloid stimulation", "type": "cell-based", "conditions": "rat primary nerve cells, β amyloid 25 μM, 24 hours after stimulation, medial expression level taken as 1", "protocol": "In order to examine if […] stimulation would affect the expression of NIPK gene with enhanced expression by endoplasmic reticulum stress, gene expression analysis was performed as in EXAMPLE 1, using cells stimulated with β amyloid.\nRat primary nerve cells prepared as in EXAMPLE 1 were suspended in N2-supplemented DMEM medium (GIBCO) and then plated at 250,000 cells/well, followed by incubation for 4 days. After the incubation, β amyloid suspended in the medium above in a final concentration of 25 μM was added to the medium. As in EXAMPLE 1, the total RNA was extracted from the cells 4, 8 and 24 hours after the addition and provided for gene analysis. For control, the cells to which the medium described above was added instead of β amyloid were used. Expression of NIPK was more enhanced in the cells stimulated with β, when compared to control (TABLE 2)."}, "Akt1": {"target": "T1, Akt1 (Homo sapiens, UniProt P31749)", "T1 construct": "expressed in transfected cells; host or cells: COS7 cells", "T1 sequence (P31749 whole entry)": "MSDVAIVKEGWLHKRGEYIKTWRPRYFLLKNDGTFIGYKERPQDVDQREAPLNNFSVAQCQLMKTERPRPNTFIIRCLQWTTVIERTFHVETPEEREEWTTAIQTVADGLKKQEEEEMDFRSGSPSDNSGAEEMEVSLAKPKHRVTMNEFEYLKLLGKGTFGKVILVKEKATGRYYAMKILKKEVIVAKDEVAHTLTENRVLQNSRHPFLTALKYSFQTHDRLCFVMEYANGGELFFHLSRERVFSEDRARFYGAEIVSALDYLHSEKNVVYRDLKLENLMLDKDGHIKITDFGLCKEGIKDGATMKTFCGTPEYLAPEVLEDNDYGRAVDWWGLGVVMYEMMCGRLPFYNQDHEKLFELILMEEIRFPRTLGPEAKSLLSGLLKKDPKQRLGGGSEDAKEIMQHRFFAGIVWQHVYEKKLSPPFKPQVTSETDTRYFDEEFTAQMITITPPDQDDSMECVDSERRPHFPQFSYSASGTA", "experiment": "Immunoprecipitation with anti-V5 antibody and western blotting with anti-Akt1 antibody", "type": "binding", "conditions": "V5-tagged NIPK and Akt1 co-expressed in COS7 cells; control GFP and Akt1", "protocol": "Using human NIPK cloned into pCDNA3.1-/V5-His TOPO (Invitrogen) vector (EXAMPLE 3) as a template, PCR was carried out with synthetic primers (SEQ ID NO: 3 and SEQ ID NO: 23) and Pfu turbo (Stratagene) as an enzyme under the conditions (1)-(3) to obtain the specific PCR product. • (1) 94° C. for 5 minutes • (2) 94° C. for 30 seconds—60° C. for 30 seconds—72° C. for 1 minute, 25 time • (3) 72° C. for 5 minutes\nThe PCR product obtained was cloned into pCDNA3.1-/V5-His TOPO (Invitrogen) to transfect Escherichia coli DH5α. The resulting colony was cultured in LB medium to recover V5-tagged human NIPK gene expression vector.\nAkt1 gene expression vector was prepared by the following procedures. Using Quick-clone human whole brain cDNA (Clontech) as a template, PCR was carried out with synthetic primers (SEQ ID NO: 24 and SEQ ID NO: 25) and Pfu turbo (Stratagene) as an enzyme under the conditions (1)-(3) below to obtain the specific PCR product. • (1) 94° C. for 5 minutes • (2) 94° C. for 30 seconds—58° C. for 30 seconds—72° C. for 2 minutes, 35 times • (3) 72° C. for 5 minutes […]"}}}
{"molecule": "O=CC[C@@H](O)[C@H](O)[C@H](O)CO", "note": "[2DG, 2-deoxyglucose]", "values": [{"measurement": "Gene Expression Level", "setting": "[1]; glucose-free medium, 2-deoxyglucose 3 mM, 4 hours after addition", "result": 0.72}, {"measurement": "Gene Expression Level", "setting": "[1]; glucose-free medium, 2-deoxyglucose 3 mM, 8 hours after addition", "result": 1.79}, {"measurement": "Gene Expression Level", "setting": "[1]; glucose-free medium, 2-deoxyglucose 3 mM, 24 hours after addition", "result": 2.45}]}
{"molecule": "C/C=C(/C)C(=O)O[C@H]1C(C)=C2[C@H]([C@@H]1OC(=O)CCCCCCC)[C@@](C)(OC(C)=O)C[C@H](OC(=O)CCC)[C@@]1(O)[C@H]2OC(=O)[C@@]1(C)O", "note": "[Thap, thapsigargin]", "values": [{"measurement": "Gene Expression Level", "setting": "[1]; thapsigargin 2 nM, 4 hours after stimulation", "result": 0.93}, {"measurement": "Gene Expression Level", "setting": "[1]; thapsigargin 2 nM, 8 hours after stimulation", "result": 2.70}, {"measurement": "Gene Expression Level", "setting": "[1]; thapsigargin 2 nM, 24 hours after stimulation", "result": 1.64}]}
{"molecule": "Tunicamycin [Tnc]", "values": [{"measurement": "Gene Expression Level", "setting": "[1]; tunicamycin 100 nM, 4 hours after stimulation", "result": 0.41}, {"measurement": "Gene Expression Level", "setting": "[1]; tunicamycin 100 nM, 8 hours after stimulation", "result": 1.64}, {"measurement": "Gene Expression Level", "setting": "[1]; tunicamycin 100 nM, 24 hours after stimulation", "result": 1.32}]}
{"molecule": "β amyloid", "values": [{"measurement": "Gene Expression Level", "setting": "NIPK gene", "result": 0.34}]}
{"molecule": "NIPK: human neuronal cell death inducible putative kinase, amino acid sequence SEQ ID NO: 1; V5-tagged, expressed in COS7 cells (protein, V5 tag; Homo sapience, V5-tagged, expressed in COS7 cells) MRATPLAAPAGSLSRKKRLELDDNLDTERPVQKRARSGPQPRLPPCLLPLSPPTAPDRATAVATASRLGPYVLLEPEEGGRAYQALHCPTGTEYTCKVYPVQEALAVLEPYARLPPHKHVARPTEVLAGTQLLYAFFTRTHGDMHSLVRSRHRIPEPEAAVLFRQMATALAHCHQHGLVLRDLKLCRFVFADRERKKLVLENLEDSCVLTGPDDSLWDKHACPAYVGPEILSSRASYSGKAADVWSLGVALFTMLAGHYPFQDSEPVLLFGKIRRGAYALPAGLSAPARCLVRCLLRREPAERLTATGILLHPWLRQDPMPLAPTRSHLWEAAQVVPDGLGLDEAREEEGDREVVLYG", "values": [{"measurement": "binding to Akt1 within the cells", "setting": "Akt1", "result": "bound to Akt1"}]}
